Reference: EP4678638A1, “NEW E3 UBIQUITIN LIGASE LIGAND, PROTEIN DEGRADATION AGENT AND USE THEREOF” (priority 2023, dated 2024)

Assays:
H2228 = test: CCK-8 proliferation, NCI-H2228 (H2228); type: cell-based; details: Homo sapiens, NCI-H2228; Table B6, compounds designed based on the ALK inhibitors; H2228 cells; read-out: Inhibitory activity (IC50, nM) on tumor cell proliferation, H2228
Procedure, shortened: (§1)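 Cells seeded, then after 24 h treated with 10 concentrations (top 10 µM, 5-fold serial dilution) for a line-specific time at 37°C, 5% CO2. Viability read by CCK-8; IC50 fitted from growth-inhibition curves.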

MCF7 = test: CCK-8 proliferation, MCF7 (MCF-7); type: cell-based; details: Homo sapiens, MCF7; Table B6, compounds designed based on the ALK inhibitors; MCF-7 cells; read-out: Inhibitory activity (IC50, nM) on tumor cell proliferation, MCF-7
Procedure, shortened: as §1

SR = test: CCK-8 proliferation, SR; type: cell-based, Human; details: Homo sapiens; Table B6, compounds designed based on the ALK inhibitors; SR cells; read-out: Inhibitory activity (IC50, nM) on tumor cell proliferation, SR
Procedure, shortened: as §1

ALK = target: T1, ALK (Homo sapiens, UniProt Q96SW2+Q9HC35+Q9UM73); test: Western blot degradation of ALK (H2228 Cell); type: cell-based; details: Table D5
T1 construct: evaluate the effects of the compounds of the present disclosure on the expression of target proteins in cells; endogenous in cells; host or cells: H2228
T1 sequence (Q9HC35+Q9UM73 fused): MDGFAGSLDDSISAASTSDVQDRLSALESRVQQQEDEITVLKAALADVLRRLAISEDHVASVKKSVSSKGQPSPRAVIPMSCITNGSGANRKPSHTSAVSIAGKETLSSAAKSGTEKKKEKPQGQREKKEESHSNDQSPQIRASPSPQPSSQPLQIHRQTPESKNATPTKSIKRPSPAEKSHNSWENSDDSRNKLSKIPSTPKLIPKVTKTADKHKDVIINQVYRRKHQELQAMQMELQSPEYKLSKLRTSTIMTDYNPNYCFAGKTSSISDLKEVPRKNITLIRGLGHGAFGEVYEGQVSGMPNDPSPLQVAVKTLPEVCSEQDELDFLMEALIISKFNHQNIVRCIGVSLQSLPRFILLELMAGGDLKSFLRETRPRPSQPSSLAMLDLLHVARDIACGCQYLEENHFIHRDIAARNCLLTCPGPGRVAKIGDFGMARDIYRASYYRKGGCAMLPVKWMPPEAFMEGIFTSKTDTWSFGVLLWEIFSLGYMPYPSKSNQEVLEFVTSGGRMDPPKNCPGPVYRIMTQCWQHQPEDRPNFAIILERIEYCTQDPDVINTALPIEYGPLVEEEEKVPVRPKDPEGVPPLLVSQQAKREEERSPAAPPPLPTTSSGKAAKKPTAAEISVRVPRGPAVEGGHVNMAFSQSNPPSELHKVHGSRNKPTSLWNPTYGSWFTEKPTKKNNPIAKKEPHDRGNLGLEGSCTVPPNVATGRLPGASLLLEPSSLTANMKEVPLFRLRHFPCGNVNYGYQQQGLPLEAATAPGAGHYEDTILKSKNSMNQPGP
T1 sequence (Q96SW2 whole entry): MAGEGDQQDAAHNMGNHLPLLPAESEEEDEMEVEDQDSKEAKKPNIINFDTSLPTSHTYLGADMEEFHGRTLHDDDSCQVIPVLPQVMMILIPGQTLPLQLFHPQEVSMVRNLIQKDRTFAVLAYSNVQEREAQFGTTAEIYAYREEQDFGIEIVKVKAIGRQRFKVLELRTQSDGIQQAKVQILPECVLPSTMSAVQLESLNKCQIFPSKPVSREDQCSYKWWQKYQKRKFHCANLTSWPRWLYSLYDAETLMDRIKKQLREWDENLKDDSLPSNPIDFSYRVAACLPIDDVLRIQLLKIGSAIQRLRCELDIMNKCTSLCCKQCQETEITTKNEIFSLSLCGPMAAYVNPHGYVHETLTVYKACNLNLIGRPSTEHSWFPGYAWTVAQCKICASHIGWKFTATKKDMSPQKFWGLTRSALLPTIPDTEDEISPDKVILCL
T1 sequence (Q16531 whole entry partner): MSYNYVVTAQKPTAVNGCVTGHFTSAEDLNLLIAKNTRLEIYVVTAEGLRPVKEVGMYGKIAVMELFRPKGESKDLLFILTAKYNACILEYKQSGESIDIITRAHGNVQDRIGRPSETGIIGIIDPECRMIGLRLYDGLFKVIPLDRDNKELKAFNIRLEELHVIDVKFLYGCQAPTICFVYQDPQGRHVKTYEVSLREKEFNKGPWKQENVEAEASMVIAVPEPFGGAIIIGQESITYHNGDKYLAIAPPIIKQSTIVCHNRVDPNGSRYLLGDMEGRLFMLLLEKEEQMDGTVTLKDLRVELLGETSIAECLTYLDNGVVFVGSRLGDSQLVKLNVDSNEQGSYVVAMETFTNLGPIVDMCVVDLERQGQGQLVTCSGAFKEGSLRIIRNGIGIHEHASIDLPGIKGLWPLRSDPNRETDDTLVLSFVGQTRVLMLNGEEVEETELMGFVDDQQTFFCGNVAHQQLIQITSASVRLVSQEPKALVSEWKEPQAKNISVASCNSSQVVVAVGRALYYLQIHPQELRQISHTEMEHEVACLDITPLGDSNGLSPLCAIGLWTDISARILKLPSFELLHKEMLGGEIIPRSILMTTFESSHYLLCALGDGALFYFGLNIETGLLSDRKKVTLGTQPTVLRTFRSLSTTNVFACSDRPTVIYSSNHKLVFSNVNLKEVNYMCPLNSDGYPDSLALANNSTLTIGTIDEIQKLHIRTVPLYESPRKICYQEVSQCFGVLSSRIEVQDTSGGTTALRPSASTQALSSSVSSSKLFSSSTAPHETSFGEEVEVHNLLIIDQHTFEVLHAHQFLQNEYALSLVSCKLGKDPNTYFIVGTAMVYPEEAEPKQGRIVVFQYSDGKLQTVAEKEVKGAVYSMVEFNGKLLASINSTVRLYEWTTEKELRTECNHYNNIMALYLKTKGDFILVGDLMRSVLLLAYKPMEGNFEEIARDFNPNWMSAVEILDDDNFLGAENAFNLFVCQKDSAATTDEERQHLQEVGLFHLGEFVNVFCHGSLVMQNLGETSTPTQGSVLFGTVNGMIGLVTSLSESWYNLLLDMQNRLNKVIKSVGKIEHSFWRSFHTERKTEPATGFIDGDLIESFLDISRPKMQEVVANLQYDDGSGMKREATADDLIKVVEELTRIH
Experimental: Conventional Western blot assay was performed to evaluate the effects of the compounds of the present disclosure on the expression of target proteins in cells.
(1) Cell Seeding and Protein Harvesting: The selected cells were processed according to the cell seeding procedure and protein harvesting procedure in Table III-2. Table III-2 Cell Seeding and Protein Harvesting Procedures
(2) To the collected supernatant, 5X SDS sample loading buffer was added, followed by denaturation at 95°C for 5 minutes. The denatured samples were then separated by SDS-PAGE electrophoresis on a polyacrylamide gel. Proteins were transferred to a nitrocellulose membrane (0.45 µm NC membrane), blocked with blocking buffer at room temperature for 1 hour, and subjected to antibody incubation and development procedures according to the antibody manufacturer's instructions (Cell Signaling Technology).
Half-Maximal Degradation Concentration value (the drug concentration required for degrading proteins by 50%, abbreviated as DC50) reads method: comparing the grayscale values of Western blot bands from drug-treated samples with those from blank DMSO-treated controls, and identifying the drug concentration range at which the grayscale value is half that of the DMSO-treated control bands.
DC50 values can be calculated using ImageJ software to measure grayscale values of Western blot bands from drug-treated samples. The concentration-response curve is fitted to estimate the drug concentration corresponding to half the grayscale value.
Target protein remaining (%) refers to the percentage of target protein remaining in hPBMC cells after treatment with protein degrader compounds.
Calculation method for target protein remaining (%): Use ImageJ software to measure grayscale values of Western blot bands from drug (protein degrader)-treated samples. The grayscale value of drug-treated bands is divided by that of internal control protein bands, and the resulting quotient is normalized to obtain the relative percentage of remaining target protein after protein degrader treatment.
Target protein degradation rate (%) = 100% - target protein remaining (%).

H1975 = test: CCK-8 proliferation, NCI-H1975 (H1975); type: cell-based, Human; details: Homo sapiens, NCI-H1975; Table B6, compounds designed based on the ALK inhibitors; H1975 cells; read-out: Inhibitory activity (IC50, nM) on tumor cell proliferation, H1975
Procedure, shortened: as §1

IC50 (H2228) [nM]	IC50 (MCF7) [nM]	IC50 (H1975) [nM]	SMILES	IC50 (SR) [nM]	Degradation of substrate protein ALK (substrate protein remaining %) (ALK)
100 to 500	500 to 1000	–	CCc1cc2c(cc1N1CCN(Cc3ccc(N4CCC(=O)NC4=O)nc3)CC1)C(C)(C)c1[nH]c3cc(C#N)ccc3c1C2=O [GT-07327, 8-(4-((6-(2,4-dioxotetrahydropyrimidin-1(2H)-yl)pyridin-3-yl)methyl)piperazin-1-yl)-9-ethyl-6,6-dimethyl-11-oxo-6,11-dihydro-5H-benzo[b]carbazole-3-carbonitrile]	1 to 10	A (A is defined as 0% ≤ substrate protein remaining % ≤ 80%)
100 to 500	500 to 1000	500 to 1000	COc1cc(N2CCN(Cc3ccc(N4CCC(=O)NC4=O)cc3)CC2)ccc1Nc1ncc(Cl)c(Nc2ccccc2P(C)(C)=O)n1 [GT-07345, 1-(4-((4-(4-((5-chloro-4-((2-(dimethylphosphoryl)phenyl)amino)pyrimidin-2-yl)amino)-3-methoxyphenyl)piperazin-1-yl)methyl)phenyl)dihydropyr imidine-2,4(1H,3H)-dione]	10 to 50	A (A is defined as 0% ≤ substrate protein remaining % ≤ 80%)
100 to 500	500 to 1000	100 to 500	COc1cc(N2CCN(Cc3ccc(N4CCC(=O)NC4=O)c(F)c3)CC2)ccc1Nc1ncc(Cl)c(Nc2ccccc2P(C)(C)=O)n1 [GT-07346, 1-(4-((4-(4-((5-chloro-4-((2-(dimethylphosphoryl)phenyl)amino)pyrimidin-2-yl)amino)-3-methoxyphenyl)piperazin-1-yl)methyl)-2-fluorophenyl)dihydropyrimidine-2,4(1H,3H)-dione]	10 to 50	A (A is defined as 0% ≤ substrate protein remaining % ≤ 80%)
100 to 500	500 to 1000	500 to 1000	COc1cc(N2CCN(Cc3cccc(NC4CCC(=O)NC4=O)c3)CC2)ccc1Nc1ncc(Cl)c(Nc2ccccc2P(C)(C)=O)n1 (stereo not shown) [GT-07351, 3-((3-((4-(4-((5-chloro-4-((2-(dimethylphosphoryl)phenyl)amino)pyrimidin-2-yl)amino)-3-methoxyphenyl)piperazin-1-yl)methyl)phenyl)amino)pip eridine-2,6-dione]	10 to 50	A (A is defined as 0% ≤ substrate protein remaining % ≤ 80%)
100 to 500	500 to 1000	–	Cc1cc(Nc2ncc(Cl)c(Nc3ccccc3S(=O)(=O)C(C)C)n2)c(OC(C)C)cc1C1CCN(Cc2ccc(N3CCC(=O)NC3=O)cc2)CC1 [GT-07592, 1-(4-((4-(4-((5-chloro-4-((2-(isopropylsulfonyl)phenyl)amino)pyrimidin-2-yl)amino)-5-isopropoxy-2-methylphenyl)piperidin-1-yl)methyl)phenyl)dihydropyr imidine-2,4(1H,3H)-dione]	10 to 50	A (A is defined as 0% ≤ substrate protein remaining % ≤ 80%)
100 to 500	100 to 500	–	Cc1cc(Nc2ncc(Cl)c(Nc3ccccc3S(=O)(=O)C(C)C)n2)c(OC(C)C)cc1C1CCN(Cc2ccnc(N3CCC(=O)NC3=O)c2)CC1 [GT-07596, 1-(4-((4-(4-((5-chloro-4-((2-(isopropylsulfonyl)phenyl)amino)pyrimidin-2-yl)amino)-5-isopropoxy-2-methylphenyl)piperidin-1-yl)methyl)pyridin-2-yl)dihydropyrimidine-2,4(1H,3H)-dione]	10 to 50	A (A is defined as 0% ≤ substrate protein remaining % ≤ 80%)
100 to 500	500 to 1000	–	COc1cc(N2CCC(N(C)Cc3ccnc(C4CCC(=O)NC4=O)c3)CC2)ccc1Nc1ncc(Cl)c(Nc2ccccc2P(C)(C)=O)n1 (stereo not shown) [GT-07697, 3-(4-(((1-(4-((5-chloro-4-((2-(dimethylphosphoryl)phenyl)amino)pyrimidin-2-yl)amino)-3-methoxyphenyl)piperidin-4-yl)(methyl)amino)methyl)pyridin-2-yl)piperidine-2,6-dione]	10 to 50	A (A is defined as 0% ≤ substrate protein remaining % ≤ 80%)
